pKi: −log10 of the molar value. “Also recorded” adds a separate entry of the source. Where two headings read alike, the source gives them in different places.
Columns and labels:
human Mcl-1 [1] = molecular target: T1, human Mcl-1 (Homo sapiens, UniProt Q07820); format: binding; details: for improved binding compared to 1: reference compound 1
human Mcl-1 [2] = molecular target: T1, human Mcl-1; test: 1H,15N-HSQC NMR chemical shift perturbation of Mcl-1; format: binding; details: 15N-labeled Mcl-1 75 μM, Mcl-1:compound 1:1 and 1:2
Bcl-2 = details: read-out: Ki against Bcl-2; cited from earlier work
Mcl-1 = details: read-out: Ki of 53 to Mcl-1; cited from earlier work
[3] = tested on: Eμ-myc/Bcl-2 lymphoma cells; test: cell death; format: cell-based, mice; details: 15–18 h, increasing concentrations
[4] = tested on: Eμ-myc/Mcl-1 lymphoma cells; test: cell death; format: cell-based, mice; details: 15–18 h, increasing concentrations
[5] = tested on: caspase-3 activity in HL-60 cells; test: caspase-3 fluorometric assay; format: cell-based, human; details: for induction of caspase-3 activity (in words): HL-60, 20 h
HL-60 cells = test: apoptosis by annexin-V / PI double staining, flow cytometry, HL-60; format: cell-based, human; details: for induction of apoptosis in HL-60 (in words) / apoptotic cells (early + late): 20 h
endogenous Mcl-1 protein = endogenous Mcl-1 protein (Homo sapiens, UniProt Q07820); test: biotin-streptavidin pull-down with biotin-labeled Noxa in 2LMP whole cell lysate; details: BL-Noxa 0.1 μM
human Mcl-1 [6] = molecular target: T1, human Mcl-1; format: binding; details: for improved binding in SPR assay compared to 3: reference compound 3; for decrease of binding in SPR assay compared to 10: reference compound 10

Sequence of endogenous Mcl-1 protein (Q07820 whole entry): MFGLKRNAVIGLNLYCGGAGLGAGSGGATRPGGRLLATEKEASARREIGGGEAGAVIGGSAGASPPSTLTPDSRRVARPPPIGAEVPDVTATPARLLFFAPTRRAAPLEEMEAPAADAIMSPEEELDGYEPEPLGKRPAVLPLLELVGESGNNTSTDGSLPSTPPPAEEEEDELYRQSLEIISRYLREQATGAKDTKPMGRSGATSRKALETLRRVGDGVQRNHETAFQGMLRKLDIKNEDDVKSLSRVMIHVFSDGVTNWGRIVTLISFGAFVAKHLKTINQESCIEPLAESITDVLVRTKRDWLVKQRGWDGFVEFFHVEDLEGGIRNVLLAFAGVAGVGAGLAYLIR
T1 sequence (Q07820 171-327): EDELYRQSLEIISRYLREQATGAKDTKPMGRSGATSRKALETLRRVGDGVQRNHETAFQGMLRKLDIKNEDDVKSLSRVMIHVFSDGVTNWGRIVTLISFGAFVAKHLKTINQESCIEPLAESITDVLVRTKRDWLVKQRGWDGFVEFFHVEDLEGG

CC(=O)Oc1c(SCC(=O)O)cc(NS(=O)(=O)c2ccc(Br)cc2)c2ccccc12 [Compound 46, 2-((1-Acetoxy-4-(4-bromophenylsulfonamido)naphthalen-2-yl)thio)acetic Acid]
decrease of binding in FP assay compared to 10 (human Mcl-1 [1]; reference compound 10): 69 fold

CCCCSc1cc(NS(=O)(=O)c2ccc(Br)cc2)c2ccccc2c1O [Compound 31, 4-Bromo-N-(3-(butylthio)-4-hydroxynaphthalen-1-yl)benzenesulfonamide]
did not show binding up to (FP assay, highest concentration tested) (human Mcl-1 [1]; competitive FP, Mcl-1): > 100 µM

O=C(O)CSc1cc(CNS(=O)(=O)c2ccccc2)c2ccccc2c1O [Compound 27]
decreased binding in FP assay compared to 3 (human Mcl-1 [1]): 18 fold

CS(=O)(=O)Nc1cc(SCC(=O)O)c(O)c2ccccc12 [Compound 2, 2-((1-Hydroxy-4-(methylsulfonamido)naphthalen-2-yl)thio)acetic Acid]
chemical shift perturbation of Mcl-1 backbone residues (HSQC NMR, in words) (human Mcl-1 [2]): lack of chemical shift perturbation

COc1ccc(S(=O)(=O)Nc2cc(SCC(=O)O)c(O)c3ccccc23)cc1 [Compound 11, 2-((1-Hydroxy-4-(4-methoxyphenylsulfonamido)naphthalen-2-yl)thio)acetic Acid]
decreased binding in FP assay compared to 3 (human Mcl-1 [1]): 3 fold

O=C(O)CSc1cc(NC(=O)c2ccc(Br)cc2)c2ccccc2c1O [Compound 25, 2-((4-(4-Bromobenzamido)-1-hydroxynaphthalen-2-yl)thio)acetic Acid]
decrease of binding in FP assay compared to 10 (human Mcl-1 [1]): 83 fold

COc1c(I)cc(C=O)c2ccccc12 [Compound 53]
pKi (Bcl-2): 6.06 | pKi (Mcl-1): 7.26

CC1(C)CCC(c2ccc(Cl)cc2)=C(CN2CCN(c3ccc(C(=O)NS(=O)(=O)c4ccc(N[C@H](CCN5CCOCC5)CSc5ccccc5)c(S(=O)(=O)C(F)(F)F)c4)cc3)CC2)C1 [ABT-263, reference compound]
sensitivity of lymphoma cells overexpressing Bcl-2 to induced cell death [3]: sensitive | sensitivity of lymphoma cells overexpressing Mcl-1 to induced cell death [4]: insensitive

O=C(O)CSc1cc(NS(=O)(=O)c2ccc(Oc3ccccc3)cc2)c2ccccc2c1O [Compound 21, 2-((1-Hydroxy-4-(4-phenoxyphenylsulfonamido)naphthalen-2-yl)thio)acetic Acid]
induction of caspase-3 activity (in words) [5]: induce activation of caspase-3 activity in a dose-dependent manner; also recorded: induced activation of caspase-3 | concentration at which activation of caspase-3 starts ([5]; HL-60, over a 24 h period): 2.5 µM | induction of apoptosis in HL-60 (in words) (HL-60 cells; 2.5, 5.0 and 10 μM): effectively induced apoptosis in a dose-dependent manner | concentration at which induction of apoptosis starts (HL-60 cells; HL-60): 2.5 µM | apoptotic cells (early + late) (HL-60 cells; HL-60, 5.0 μM): 37.8% | apoptotic cells (early + late) (HL-60 cells; HL-60, 10 μM): 78.4% | sensitivity of lymphoma cells overexpressing Bcl-2 to induced cell death [3]: ineffective | less potent than 53 (Mcl-1 binding) (human Mcl-1 [1]): 3 fold | binding of BL-Noxa to Mcl-1 after preincubation (pull-down, Western blot) (endogenous Mcl-1 protein): completely blocked | sensitivity of lymphoma cells overexpressing Mcl-1 to induced cell death [4]: significantly sensitive

COC(=O)C[C@H](NC(=O)[C@H](C)NC(=O)[C@@H](NC(=O)OCc1ccccc1)C(C)C)C(=O)CF (racemic) [Z-VAD-FMK, Z-Val-Ala-DL-Asp-fluoromethylketone, reference compound]
effect of Z-VAD-FMK alone on cells (HL-60 cells; HL-60, Figure S7): has no effect on cells

O=S(=O)(Nc1cc(SCc2nnn[nH]2)c(O)c2ccccc12)c1ccc(Oc2ccccc2)cc1 [Compound 37, N-(3-(((2H-Tetrazol-5-yl)methyl)thio)-4-hydroxynaphthalen-1-yl)-4-phenoxybenzenesulfonamide]
induction of apoptosis in HL-60 (in words) (HL-60 cells; 2.5, 5.0 and 10 μM): effectively induced apoptosis in a dose-dependent manner | apoptotic cells (early + late) (HL-60 cells; HL-60, 5.0 μM): 51.6% | apoptotic cells (early + late) (HL-60 cells; HL-60, 10 μM): 74.2% | induction of apoptosis in the presence of Z-VAD-FMK (in words) (HL-60 cells; HL-60, pretreated with 100 μM Z-VAD-FMK): significantly inhibited

O=C(O)CSc1cc(NS(=O)(=O)c2cccc(-c3ccccc3)c2)c2ccccc2c1O [Compound 17, 2-((4-([1,1′-Biphenyl]-3-ylsulfonamido)-1-hydroxynaphthalen-2-yl)thio)acetic Acid]
improved binding in FP assay compared to 3 (human Mcl-1 [1]; reference compound 3): 10 fold | improved binding in SPR assay compared to 3 (human Mcl-1 [6]): 6 fold

O=C(O)CSc1cc(NS(=O)(=O)Cc2ccc(Cl)cc2)c2ccccc2c1O [Compound 26, 2-((4-((4-Chlorophenyl)methylsulfonamido)-1-hydroxynaphthalen-2-yl)thio)acetic Acid]
decreased binding affinity (FP) relative to 9 (human Mcl-1 [1]; reference compound 9): 6 fold

COC(=O)CSc1cc(NS(=O)(=O)c2ccc(Br)cc2)c2ccccc2c1O [Compound 32, Methyl 2-((4-(4-Bromophenylsulfonamido)-1-hydroxynaphthalen-2-yl)thio)acetate]
decrease of binding in FP assay compared to 10 (human Mcl-1 [1]; reference compound 10): 10 fold | decrease of binding in SPR assay compared to 10 (human Mcl-1 [6]): 6 fold

NC(=O)CSc1cc(NS(=O)(=O)c2ccc(Br)cc2)c2ccccc2c1O [Compound 33, 2-((4-(4-Bromophenylsulfonamido)-1-hydroxynaphthalen-2-yl)thio)acetamide]
decrease of binding in FP assay compared to 10 (human Mcl-1 [1]): 3 fold | decrease of binding in SPR assay compared to 10 (human Mcl-1 [6]): 2 fold

CC(C)(C)c1ccc(S(=O)(=O)Nc2cc(SCC(=O)O)c(O)c3ccccc23)cc1 [Compound 7]
improved binding in FP assay compared to 3 (human Mcl-1 [1]; reference compound 3): 4.5 fold | improved binding in SPR assay compared to 3 (human Mcl-1 [6]): 1.5 fold

O=C(O)CSc1cc(NS(=O)(=O)N2CCN(c3ccccc3)CC2)c2ccccc2c1O [Compound 23, 2-((1-Hydroxy-4-(4-phenylpiperazine-1-sulfonamido)naphthalen-2-yl)thio)acetic Acid]
decrease in binding in FP assay in comparison with 16 (human Mcl-1 [1]): 6 fold | decrease in binding in SPR assay in comparison with 16 (human Mcl-1 [6]; reference compound 16): 8 fold

O=C(O)CSc1cc(NS(=O)(=O)c2ccc(-c3ccccc3)cc2)c2ccccc2c1O [Compound 16, 2-((4-([1,1′-Biphenyl]-4-ylsulfonamido)-1-hydroxynaphthalen-2-yl)thio)acetic Acid]
improved binding in FP assay compared to 3 (human Mcl-1 [1]): 10 fold | improved binding in SPR assay compared to 3 (human Mcl-1 [6]): 6 fold

O=S(=O)(Nc1ccc(O)c2ccccc12)c1ccccc1 [Compound 30]
did not show binding up to (FP assay, highest concentration tested) (human Mcl-1 [1]; competitive FP, Mcl-1): > 100 µM

COC(=O)CSc1cc(NS(=O)(=O)c2ccc(Br)cc2)c2ccccc2c1OC [Compound 41, Methyl 2-((4-(4-Bromophenylsulfonamido)-1-methoxynaphthalen-2-yl)thio)acetate]
induction of apoptosis in HL-60 (in words) (HL-60 cells; 40 μM): has no effect on apoptosis induction | sensitivity of lymphoma cells overexpressing Bcl-2 to induced cell death [3]: did not show any activity | did not show binding up to (FP assay, highest concentration tested) (human Mcl-1 [1]): > 100 µM | sensitivity of lymphoma cells overexpressing Mcl-1 to induced cell death [4]: did not show any activity

O=C(O)CSc1cc(NS(=O)(=O)c2ccc(Br)cc2)c2ccccc2c1O [Compound 10, 2-((4-(4-Bromophenylsulfonamido)-1-hydroxynaphthalen-2-yl)thio)acetic Acid]
improved binding compared to 1 (human Mcl-1 [1]): 7 fold | improved binding in FP assay compared to 3 (human Mcl-1 [1]; reference compound 3): 7 fold | binding of BL-Noxa to Mcl-1 after preincubation (pull-down, Western blot) (endogenous Mcl-1 protein): completely blocked | improved binding in SPR assay compared to 3 (human Mcl-1 [6]): 5 fold

O=C(O)CSc1cc(NS(=O)(=O)c2ccc(-c3ccc(Cl)cc3)cc2)c2ccccc2c1O [Compound 19, 2-((4-(4′-Chloro-[1,1′-biphenyl]-4-ylsulfonamido)-1-hydroxynaphthalen-2-yl)thio)acetic Acid]
induction of caspase-3 activity (in words) [5]: induce activation of caspase-3 activity in a dose-dependent manner; also recorded: induced activation of caspase-3 | sensitivity of lymphoma cells overexpressing Bcl-2 to induced cell death [3]: ineffective | less potent than 53 (Mcl-1 binding) (human Mcl-1 [1]): 3 fold | improved binding compared to 1 (human Mcl-1 [1]): 9 fold | improved binding in FP assay compared to 3 (human Mcl-1 [1]; reference compound 3): 21 fold | binding of BL-Noxa to Mcl-1 after preincubation (pull-down, Western blot) (endogenous Mcl-1 protein): completely blocked | sensitivity of lymphoma cells overexpressing Mcl-1 to induced cell death [4]: significantly sensitive | improved binding in SPR assay compared to 3 (human Mcl-1 [6]): 14 fold

From publication PMC4033665 (Journal of Medicinal Chemistry, 2014)
